Experiment in all cases: relative viability (nuclei count vs DMSO), 5 days (fraction); higher = more cells survive
Compound in the assay “Sunitinib + Crizotinib”: CCN(CC)CCNC(=O)c1c(C)[nH]c(/C=C2\C(=O)Nc3ccc(F)cc32)c1C [Sunitinib] + C[C@@H](Oc1cc(-c2cnn(C3CCNCC3)c2)cnc1N)c1c(Cl)ccc(F)c1Cl [Crizotinib] (partner 1 µM)
The essentials:
(§1)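 Relative viability was taken as the ratio of nuclei in treated wells to nuclei in vehicle wells. Lung cancer cell lines in 1536-well plates received compounds by pin tool one day after seeding, either one drug alone or a fixed anchor-drug dose plus five library-drug doses (not always all listed) in √10 steps. Nuclei were counted on 4× images after 5 days of treatment, and values are medians of duplicate plates.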

Compound in the assay “Sunitinib + Vorinostat”: CCN(CC)CCNC(=O)c1c(C)[nH]c(/C=C2\C(=O)Nc3ccc(F)cc32)c1C [Sunitinib] + O=C(CCCCCCC(=O)Nc1ccccc1)NO [Vorinostat] (partner 1 µM)
Put shortly: as §1

Compound in the assay “Sunitinib + Palbociclib”: CCN(CC)CCNC(=O)c1c(C)[nH]c(/C=C2\C(=O)Nc3ccc(F)cc32)c1C [Sunitinib] + CC(=O)c1c(C)c2cnc(Nc3ccc(N4CCNCC4)cn3)nc2n(C2CCCC2)c1=O [Palbociclib] (partner 0.5 µM)
The essentials: as §1

Compound in the assay “Sunitinib + AZD7762”: CCN(CC)CCNC(=O)c1c(C)[nH]c(/C=C2\C(=O)Nc3ccc(F)cc32)c1C [Sunitinib] + NC(=O)Nc1cc(-c2cccc(F)c2)sc1C(=O)N[C@H]1CCCNC1 [AZD7762] (partner 0.2 µM)
Put shortly:
as §1

For the cell line Calu-6, the relative viability in the assay with Sunitinib + Crizotinib (first compound 0.02 µM) came to 0.711; with Sunitinib + Crizotinib (first compound 0.06325 µM), 0.772; with Sunitinib + Crizotinib (first compound 0.2 µM), 0.852; with Sunitinib + Crizotinib (first compound 0.6325 µM) it was 0.932; with Sunitinib + Crizotinib (first compound 2 µM), 0.79.

For ChaGo-K-1, the relative viability with Sunitinib + Vorinostat (first compound 0.02 µM) came to 0.736; in the assay with Sunitinib + Vorinostat (first compound 0.06325 µM), 0.831; with Sunitinib + Vorinostat (first compound 0.2 µM), 0.887; with Sunitinib + Vorinostat (first compound 0.6325 µM) it was 0.773; with Sunitinib + Vorinostat (first compound 2 µM) it was 0.746; in the assay with Sunitinib + Palbociclib (first compound 0.02 µM) it was 0.919. Moreover, the relative viability in the assay with Sunitinib + Palbociclib (first compound 0.06325 µM) turned out to be 0.918; with Sunitinib + Palbociclib (first compound 0.2 µM) it was 0.945; with Sunitinib + Palbociclib (first compound 0.6325 µM), 0.933; in the assay with Sunitinib + Palbociclib (first compound 2 µM), 0.801; with Sunitinib + AZD7762 (first compound 0.02 µM) it was 0.892; with Sunitinib + AZD7762 (first compound 0.06325 µM), 0.885. For the same cell line, the relative viability with Sunitinib + AZD7762 (first compound 0.2 µM) is 0.984; with Sunitinib + AZD7762 (first compound 0.6325 µM), 0.915; with Sunitinib + AZD7762 (first compound 2 µM), 0.88; with Sunitinib + Crizotinib (first compound 0.02 µM) it was 1.06; with Sunitinib + Crizotinib (first compound 0.06325 µM), 1.14; with Sunitinib + Crizotinib (first compound 0.2 µM), 1.34. In addition, the relative viability with Sunitinib + Crizotinib (first compound 0.6325 µM) turned out to be 1.22; with Sunitinib + Crizotinib (first compound 2 µM) it was 1.12.

Regarding EBC-1, the relative viability with Sunitinib + Crizotinib (first compound 0.02 µM) was 0.171; with Sunitinib + Crizotinib (first compound 0.06325 µM), 0.178; with Sunitinib + Crizotinib (first compound 0.2 µM), 0.216; with Sunitinib + Crizotinib (first compound 0.6325 µM) it was 0.183; in the assay with Sunitinib + Crizotinib (first compound 2 µM), 0.19.

As for EKVX, the relative viability came out at 0.802 with Sunitinib + Vorinostat (first compound 0.02 µM); 0.882 with Sunitinib + Vorinostat (first compound 0.2 µM); 0.806 with Sunitinib + Vorinostat (first compound 0.6325 µM); 0.728 with Sunitinib + Vorinostat (first compound 2 µM); 0.423 in the assay with Sunitinib + Palbociclib (first compound 0.02 µM); 0.453 with Sunitinib + Palbociclib (first compound 0.06325 µM). The relative viability with Sunitinib + Palbociclib (first compound 0.2 µM) is 0.508; in the assay with Sunitinib + Palbociclib (first compound 0.6325 µM), 0.403; with Sunitinib + Palbociclib (first compound 2 µM), 0.463; with Sunitinib + AZD7762 (first compound 0.02 µM) it was 0.755; with Sunitinib + AZD7762 (first compound 0.06325 µM) it was 0.783; with Sunitinib + AZD7762 (first compound 0.2 µM), 0.735. The relative viability in the assay with Sunitinib + AZD7762 (first compound 0.6325 µM) is 0.688; in the assay with Sunitinib + AZD7762 (first compound 2 µM), 0.716; with Sunitinib + Crizotinib (first compound 0.02 µM), 0.966; with Sunitinib + Crizotinib (first compound 0.06325 µM), 1.14; with Sunitinib + Crizotinib (first compound 0.2 µM), 1.22; with Sunitinib + Crizotinib (first compound 2 µM), 0.958.

For EMC-BAC-2, the relative viability with Sunitinib + Vorinostat (first compound 0.02 µM) turned out to be 0.458; with Sunitinib + Vorinostat (first compound 0.06325 µM), 0.464; with Sunitinib + Vorinostat (first compound 0.2 µM), 0.506; in the assay with Sunitinib + Vorinostat (first compound 0.6325 µM), 0.506; in the assay with Sunitinib + Vorinostat (first compound 2 µM) it was 0.505; in the assay with Sunitinib + Palbociclib (first compound 0.02 µM) it was 0.505. Besides, the relative viability in the assay with Sunitinib + Palbociclib (first compound 0.06325 µM) is 0.534; with Sunitinib + Palbociclib (first compound 0.2 µM), 0.526; with Sunitinib + Palbociclib (first compound 0.6325 µM), 0.556; with Sunitinib + Palbociclib (first compound 2 µM), 0.579; with Sunitinib + AZD7762 (first compound 0.02 µM) it was 1.08; with Sunitinib + AZD7762 (first compound 0.06325 µM), 1.24. For the same cell line, the relative viability with Sunitinib + AZD7762 (first compound 0.2 µM) is 1.22; with Sunitinib + AZD7762 (first compound 0.6325 µM), 1.27; in the assay with Sunitinib + AZD7762 (first compound 2 µM), 1.2; in the assay with Sunitinib + Crizotinib (first compound 0.02 µM), 0.743; in the assay with Sunitinib + Crizotinib (first compound 0.06325 µM) it was 0.848; with Sunitinib + Crizotinib (first compound 0.2 µM), 0.821. Besides, the relative viability with Sunitinib + Crizotinib (first compound 0.6325 µM) was 0.88; with Sunitinib + Crizotinib (first compound 2 µM), 0.797.

EPLC-272H: the relative viability in the assay with Sunitinib + Vorinostat (first compound 0.02 µM) is 0.512; with Sunitinib + Vorinostat (first compound 0.06325 µM) it was 0.479; with Sunitinib + Vorinostat (first compound 0.2 µM), 0.424; with Sunitinib + Vorinostat (first compound 0.6325 µM), 0.397; in the assay with Sunitinib + Vorinostat (first compound 2 µM) it was 0.555; with Sunitinib + Palbociclib (first compound 0.02 µM), 0.324. The relative viability in the assay with Sunitinib + Palbociclib (first compound 0.06325 µM) worked out at 0.303; with Sunitinib + Palbociclib (first compound 0.2 µM) it was 0.316; in the assay with Sunitinib + Palbociclib (first compound 0.6325 µM), 0.256; with Sunitinib + Palbociclib (first compound 2 µM), 0.298; with Sunitinib + AZD7762 (first compound 0.02 µM) it was 0.26; with Sunitinib + AZD7762 (first compound 0.06325 µM), 0.298. The relative viability in the assay with Sunitinib + AZD7762 (first compound 0.2 µM) is 0.301; in the assay with Sunitinib + AZD7762 (first compound 0.6325 µM) it was 0.175; with Sunitinib + AZD7762 (first compound 2 µM), 0.229; in the assay with Sunitinib + Crizotinib (first compound 0.02 µM), 0.906; with Sunitinib + Crizotinib (first compound 0.06325 µM), 0.736; with Sunitinib + Crizotinib (first compound 0.2 µM), 0.959. The relative viability with Sunitinib + Crizotinib (first compound 2 µM) is 0.706.

Turning to H3255, the relative viability with Sunitinib + Vorinostat (first compound 0.02 µM) was 0.672; in the assay with Sunitinib + Vorinostat (first compound 0.06325 µM) it was 0.573; with Sunitinib + Vorinostat (first compound 0.2 µM) it was 0.835; with Sunitinib + Vorinostat (first compound 0.6325 µM) it was 0.827; in the assay with Sunitinib + Vorinostat (first compound 2 µM), 0.822; with Sunitinib + Palbociclib (first compound 0.02 µM) it was 0.313. Moreover, the relative viability with Sunitinib + Palbociclib (first compound 0.06325 µM) is 0.299; with Sunitinib + Palbociclib (first compound 0.2 µM), 0.302; with Sunitinib + Palbociclib (first compound 0.6325 µM), 0.311; with Sunitinib + Palbociclib (first compound 2 µM), 0.331; with Sunitinib + AZD7762 (first compound 0.02 µM) it was 0.968; in the assay with Sunitinib + AZD7762 (first compound 0.06325 µM), 0.888. In addition, the relative viability with Sunitinib + AZD7762 (first compound 0.6325 µM) amounted to 0.871; with Sunitinib + AZD7762 (first compound 2 µM), 0.871; in the assay with Sunitinib + Crizotinib (first compound 0.02 µM), 0.836; in the assay with Sunitinib + Crizotinib (first compound 0.06325 µM), 0.831; with Sunitinib + Crizotinib (first compound 0.2 µM) it was 0.876; in the assay with Sunitinib + Crizotinib (first compound 0.6325 µM), 1.05. Besides, the relative viability with Sunitinib + Crizotinib (first compound 2 µM) came out at 0.917.

For IA-LM, the relative viability with Sunitinib + Vorinostat (first compound 0.02 µM) worked out at 0.975; in the assay with Sunitinib + Vorinostat (first compound 0.06325 µM), 0.864; with Sunitinib + Vorinostat (first compound 0.2 µM), 0.987; with Sunitinib + Vorinostat (first compound 0.6325 µM), 0.952; in the assay with Sunitinib + Vorinostat (first compound 2 µM), 1.03; with Sunitinib + Crizotinib (first compound 0.02 µM), 0.779. The relative viability amounted to 0.774 with Sunitinib + Crizotinib (first compound 0.06325 µM), 0.982 in the assay with Sunitinib + Crizotinib (first compound 0.2 µM), 0.926 with Sunitinib + Crizotinib (first compound 0.6325 µM) and 1.04 in the assay with Sunitinib + Crizotinib (first compound 2 µM).

As to NCI-H520, the relative viability with Sunitinib + Vorinostat (first compound 0.02 µM) was 0.694; in the assay with Sunitinib + Vorinostat (first compound 0.06325 µM) it was 0.793; with Sunitinib + Vorinostat (first compound 0.2 µM), 0.569; in the assay with Sunitinib + Vorinostat (first compound 0.6325 µM), 0.674; with Sunitinib + Vorinostat (first compound 2 µM), 0.578; with Sunitinib + Palbociclib (first compound 0.02 µM) it was 0.237. Further, the relative viability with Sunitinib + Palbociclib (first compound 0.06325 µM) is 0.248; in the assay with Sunitinib + Palbociclib (first compound 0.2 µM), 0.224; in the assay with Sunitinib + Palbociclib (first compound 0.6325 µM) it was 0.27; with Sunitinib + Palbociclib (first compound 2 µM) it was 0.267; in the assay with Sunitinib + Crizotinib (first compound 0.02 µM) it was 0.83; with Sunitinib + Crizotinib (first compound 0.06325 µM), 0.699. For the same cell line, the values for the relative viability with Sunitinib + Crizotinib (first compound 0.2 µM), in the assay with Sunitinib + Crizotinib (first compound 0.6325 µM) and with Sunitinib + Crizotinib (first compound 2 µM) were 0.856, 0.63 and 0.601, respectively.

(Values after the supplement of paper PMC10307832.)
